Counter-ions that a name gives are not always drawn.
Key:
T-47D cells = experiment: Caspase cascade activation (N-(Ac-DEVD)-N′-ethoxycarbonyl-R110 fluorogenic substrate) in T-47D cells; type: cell-based, Human; details: T-47D, ratio of net RFU to control
[1] = system: tubulin (Cytoskeleton #ML113, MAP-rich); experiment: Inhibition of tubulin polymerization (DAPI fluorescence); type: biochemical; details: 30 minutes preincubation, 30 minutes at 37° C.
Procedure: Lyophilized tubulin (Cytoskeleton #ML113, 1 mg, MAP-rich) was assayed for the effect of the test compound on tubulin polymerization as measured by change in fluorescence for 4′,6-diamidino-2-phenylindole (DAPI) (Barron, D. M. et al. Analytical Biochem., 2003, 315, 49-56.). 1 μl of serial dilutions of each test compound (from 100×DMSO stock) was added in 96 well plate format and preincubated for 30 minutes with 94 ul of the non-GTP supplemented tubulin supernatant. 5 μl of DAPI/GTP solution was added to initiate polymerization and incubated for 30 minutes at 37° C. Fluorescence was read with excitation 350 nm, emission wavelength 485 nm on a Tecan Spectraflour Plus. Polymerized tubulin (DMSO and with the tubulin stabilizer Taxol® (paclitaxel)) gives a higher DAPI fluorescence as compared to non-polymerized tubulin (vinblastine and colchicine used to determine baseline).

Compound | IC50 [1] [µM] | Caspase activity Ratio T-47D (24 hr) (T-47D cells) | Caspase activity Ratio T-47D (48 hr) (T-47D cells)
CN(c1ccccc1)c1nc(Cl)nc2ccccc12 [Example 6, (2-Chloro-quinazolin-4-yl)-phenyl-methyl-amine] | 4 | 6.7 | 
COc1ccc(Nc2nc(Cl)nc3ccccc23)cc1 [Example 7, (2-Chloro-quinazolin-4-yl)-(4-methoxy-phenyl)-amine] | > 50 | 1.2 | 1.0
COc1ccc(N(C)c2nc(Cl)nc3cc(OC)c(OC)cc23)cc1 [Example 20, (2-Chloro-6,7-dimethoxyquinazolin-4-yl)-(4-methoxy-phenyl)-methyl-amine] | 3 | 13.1 | 
COc1ccc(N(C)c2ncnc3c2CCCC3)cc1 [Example 25] | 2 |  | 5.8
COc1ccc(OC)c(Nc2nc(Cl)nc3ccccc23)c1 [Example 31, (2-Chloro-quinazolin-4-yl)-(2,5-dimethoxy-phenyl)-amine] | 10 | 8.0 | 14.7
Cc1ccc(N(C)c2ncnc3ccccc23)cc1 [Example 35, (4-Methyl-phenyl)-methyl-quinazolin-4-yl-amine] | 4 | 7.2 | 
COc1ccc(N(C)c2nc(Cl)nc3ccccc23)cn1 [Example 36, (2-Chloro-quinazolin-4-yl)-(6-methoxy-pyridin-3-yl)-methyl-amine] | < 1 | 6.7 | 
COc1ccc(N(C)c2nc(Cl)nc3ccccc23)c(OC)c1 [Example 41, (2-Chloro-quinazolin-4-yl)-(2,4-dimethoxy-phenyl)-methyl-amine] | < 1 |  | 12.4
COc1ccc(OC)c(N(C)c2nc(Cl)nc3ccccc23)c1 [Example 42, (2-Chloro-quinazolin-4-yl)-(2,5-dimethoxy-phenyl)-methyl-amine] | 5 | 8.6 | 14.6
COc1ccccc1N(C)c1nc(Cl)nc2ccccc12 [Example 44, (2-Chloro-quinazolin-4-yl)-(2-methoxy-phenyl)-methyl-amine] | 10 |  | 14.3
COc1ccc(N(C)c2nc(C)nc3ccccc23)cc1 [Example 72, (4-Methoxy-phenyl)-methyl-(2-methyl-quinazolin-4-yl)-amine hydrochloride] | < 1 | 9.0 | 7.4

Second part, led by results:

IC50 [1] [µM] | Compound | Caspase activity Ratio T-47D (24 hr) (T-47D cells) | Caspase activity Ratio T-47D (48 hr) (T-47D cells)
3 | Cc1ccc(N(C)c2nc(Cl)nc3ccccc23)cc1 [Example 2, (2-Chloro-quinazolin-4-yl)-(4-methyl-phenyl)-methyl-amine] | 6.7 | 
2 | COc1ccc(N(C)c2nc(N)nc3ccccc23)cc1 [Example 12, N^4-(4-Methoxy-phenyl)-N^4-methyl-quinazoline-2,4-diamine] | 5.3 | 12.8
6 | COc1ccc(N(C)c2nc(NC/C=C(\C)CCC=C(C)C)nc3ccccc23)cc1 [Example 13, N^2-(3,7-Dimethyl-octa-2,6-dienyl)-N^4-(4-methoxy-phenyl)-N^4-methyl-quinazoline-2,4-diamine] | 8.9 | 
2 | COc1cccc(N(C)c2nc(Cl)nc3ccccc23)c1 [Example 43, (2-Chloro-quinazolin-4-yl)-(3-methoxy-phenyl)-methyl-amine] |  | 14.7
10 | COc1ccc(N(C)c2nccc3ccccc23)cc1 [Example 65, (Isoquinolin-1-yl)-(4-methoxy-phenyl)-methyl-amine] |  | 13.7

Reference: patent US7618975B2, “4-arylamino-quinazolines and analogs as activators of caspases and inducers of apoptosis and the use thereof” (Myriad Pharmaceuticals, Inc., priority 2003, dated 2009)
